The test system of the assay is MX-1 breast xenograft, nude mice, tumor weight T/C. Put plainly: NCI In Vivo Anticancer Drug Screen. Data for tumor model Human Mammary Carcinoma MX-1 Xenograft (intrarenal inoculation) in NU/NU Swiss (nude) mice. The following applies: endpoint: mean tumor weight change, higher = larger tumour. The essentials: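 Tumor-bearing mice were treated with test compound alongside a vehicle-treated control group. Survival or tumor size was measured, and activity is expressed as the treated-group value divided by the control-group value.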

[1] abbreviates: dose: 25.0 mg/kg/injection, schedule: Q01DX010 (sc), vehicle: saline.
Setting [2] is: dose: 50.0 mg/kg/injection, schedule: Q01DX010 (sc), vehicle: saline.
[3] abbreviates: dose: 150.0 mg/kg/injection, schedule: Q04DX003 (sc), vehicle: saline with Tween-80.
The mark [4] stands for this setting: dose: 300.0 mg/kg/injection, schedule: Q04DX003 (sc), vehicle: saline with Tween-80.
Where [5] appears, read: dose: 6.25 mg/kg/injection, schedule: Q04DX003 (ip), vehicle: suspension in saline.
[6] abbreviates: dose: 12.5 mg/kg/injection, schedule: Q04DX003 (ip), vehicle: suspension in saline.
The mark [7] stands for this setting: dose: 600.0 mg/kg/injection, schedule: Q04DX003 (sc), vehicle: saline with Tween-80.
Where [8] appears, read: dose: 1200.0 mg/kg/injection, schedule: Q04DX003 (sc), vehicle: saline with Tween-80.

“And” between values parts separate entries of the source, which are not always exact repeats. Identical values can stand only once. Records with an inconclusive call do not appear.

Consider `O=P1(N(CCCl)CCCl)NCCCO1` (configuration not stated), for which the T/C (dose: 6.25 mg/kg/injection, schedule: Q01DX010 (ip), vehicle: saline) is 82 % of control; the T/C (dose: 6.25 mg/kg/injection, schedule: Q01DX010 (sc), vehicle: saline) was 56 % of control; the T/C (dose: 12.5 mg/kg/injection, schedule: Q01DX010 (ip), vehicle: saline) was -29 % of control; the T/C (dose: 20.8 mg/kg/injection, schedule: Q04DX003 (ip), vehicle: saline) was 8 % of control; the T/C (dose: 25.0 mg/kg/injection, schedule: Q01DX010 (ip), vehicle: saline) is -83 % of control; the T/C under setting [1] is -65 % of control and -47 % of control. The T/C reads like this: (dose: 41.66 mg/kg/injection, schedule: Q04DX003 (ip), vehicle: saline) -6 % of control; (dose: 41.66 mg/kg/injection, schedule: Q04DX003 (sc), vehicle: saline) -53 % of control; under setting [2], -93 % of control.
With `N#CN=[N+]([O-])c1ccc(C(=O)O)cc1`, the T/C (dose: 11.25 mg/kg/injection, schedule: Q04DX003 (sc), vehicle: Klucel (hydroxypropylcellulose) (HPC)) is 124 % of control; the T/C (dose: 22.5 mg/kg/injection, schedule: Q04DX003 (sc), vehicle: Klucel (hydroxypropylcellulose) (HPC)) is 87 % of control; the T/C (dose: 45.0 mg/kg/injection, schedule: Q04DX003 (sc), vehicle: Klucel (hydroxypropylcellulose) (HPC)) is 103 % of control.
With `O=C(O)C1CC1.[Ag]`, the T/C runs as follows: (dose: 75.0 mg/kg/injection, schedule: Q04DX003 (sc), vehicle: saline with Tween-80) 120 % of control; under setting [3], 80 % of control; under setting [4], 98 % of control.
As to `CC(=O)c1cccc(NC2C(N)C(NC(=O)N(C)C)(C(C)O)C(C)(O)C2(O)COC(=O)c2c(C)cccc2O)c1` (configuration not stated), the T/C reads like this: under setting [5], 62 % of control; under setting [6], 85 % of control; (dose: 25.0 mg/kg/injection, schedule: Q04DX003 (ip), vehicle: suspension in saline) 34 % of control.
For the compound `CCOC(=O)C(C)(C)Oc1ccc(Cl)cc1`, the T/C is 95 % of control under setting [4], 90 % of control under setting [7] and 71 % of control under setting [8].
Consider `CN(C)P(=O)(Oc1ccccc1)N(C)C`, for which the T/C reads like this: under setting [3], 97 % of control; under setting [4], 107 % of control; under setting [7], 113 % of control; under setting [8], 71 % of control.
Consider `Cn1cnc([N+](=O)[O-])c1Sc1ncn[nH]1`, for which the T/C runs as follows: (dose: 100.0 mg/kg/injection, schedule: Q04DX003 (sc), vehicle: suspension in saline) 72 % of control; (dose: 200.0 mg/kg/injection, schedule: Q04DX003 (sc), vehicle: suspension in saline) 95 % of control; (dose: 400.0 mg/kg/injection, schedule: Q04DX003 (sc), vehicle: suspension in saline) 92 % of control.
For the compound `CCOC(=O)NC1=C(N2CC2)C(=O)C(NC(=O)OCC)=C(N2CC2)C1=O`, the T/C was 1 % of control (dose: 1.56 mg/kg/injection, schedule: Q01DX010 (sc), vehicle: saline); 3 % of control (dose: 3.13 mg/kg/injection, schedule: Q01DX010 (sc), vehicle: saline); 41 % of control (dose: 3.13 mg/kg/injection, schedule: Q04DX003 (ip), vehicle: suspension in saline); -44 % of control under setting [5]; -100 % of control under setting [6].
On to `c1ccc([Te][Te]c2ccccc2)cc1`, for which the T/C runs as follows: (dose: 75.0 mg/kg/injection, schedule: Q04DX003 (ip), vehicle: saline with Tween-80) 117 % of control; (dose: 150.0 mg/kg/injection, schedule: Q04DX003 (ip), vehicle: saline with Tween-80) 80 % of control; (dose: 300.0 mg/kg/injection, schedule: Q04DX003 (ip), vehicle: saline with Tween-80) 91 % of control.
For `CC(=Nc1ccccc1)C1=C(O)C(Cc2ccccc2)NC1=O` (configuration not stated), the T/C was 92 % of control under setting [3], 63 % of control under setting [4], 48 % of control under setting [7] and 44 % of control under setting [8].
For the compound `CC1CN1P1(N2CC2C)=NP(N2CC2C)(N2CC2C)=NP(N2CC2C)(N2CC2C)=N1` (configuration not stated), the T/C reads like this: (dose: 18.75 mg/kg/injection, schedule: Q01DX010 (sc), vehicle: saline) 70 % of control; under setting [1], 50 % of control; (dose: 37.5 mg/kg/injection, schedule: Q01DX010 (sc), vehicle: saline) 41 % of control; under setting [2], 26 % of control; (dose: 75.0 mg/kg/injection, schedule: Q01DX010 (sc), vehicle: saline) 4 % of control; (dose: 100.0 mg/kg/injection, schedule: Q01DX010 (sc), vehicle: saline) -7 % of control. The T/C (dose: 150.0 mg/kg/injection, schedule: Q04DX003 (sc), vehicle: saline) is 13 % of control.
With `O=C1CC2(C(=O)N1CN1CCCCC1)c1ccccc1-c1ccccc12`, the T/C by setting is: (dose: 200.0 mg/kg/injection, schedule: Q04DX003 (sc), vehicle: Klucel (hydroxypropylcellulose) (HPC)) 79 % of control; (dose: 400.0 mg/kg/injection, schedule: Q04DX003 (sc), vehicle: Klucel (hydroxypropylcellulose) (HPC)) 71 % of control; (dose: 800.0 mg/kg/injection, schedule: Q04DX003 (sc), vehicle: Klucel (hydroxypropylcellulose) (HPC)) 72 % of control.
Take `Cc1ccc(S(=O)(=O)N/N=C/C(Br)=C(/Br)C(=O)O)cc1`: the T/C reads like this: (dose: 2.5 mg/kg/injection, schedule: Q04DX003 (sc), vehicle: saline) 95 % of control; (dose: 5.0 mg/kg/injection, schedule: Q04DX003 (sc), vehicle: saline) 100 % of control; (dose: 10.0 mg/kg/injection, schedule: Q04DX003 (sc), vehicle: saline) 100 % of control; (dose: 20.0 mg/kg/injection, schedule: Q04DX003 (sc), vehicle: saline) 78 % of control; (dose: 150.0 mg/kg/injection, schedule: Q04DX003 (sc), vehicle: Klucel (hydroxypropylcellulose) (HPC)) 80 % of control; (dose: 300.0 mg/kg/injection, schedule: Q04DX003 (sc), vehicle: Klucel (hydroxypropylcellulose) (HPC)) 71 % of control. Also, under “dose: 600.0 mg/kg/injection, schedule: Q04DX003 (sc), vehicle: Klucel (hydroxypropylcellulose) (HPC)”, the T/C was 26 % of control.
As for `COC1=C(OC)C(=O)C(C/C=C(\C)CC/C=C(\C)CC/C=C(\C)CC/C=C(\C)CC/C=C(\C)CC/C=C(\C)CC/C=C(\C)CC/C=C(\C)CC/C=C(\C)CCC=C(C)C)=C(C)C1=O`, the T/C (dose: 400.0 mg/kg/injection, schedule: Q01DX010 (sc), vehicle: saline with Tween-80) is 153 % of control and the T/C (dose: 800.0 mg/kg/injection, schedule: Q01DX010 (sc), vehicle: saline with Tween-80) is 118 % of control.
With `COc1cc2c(c(OC)c1OC)-c1c(cc3c(c1OC)OCO3)CC(C)C(C)(O)C2OC(=O)c1ccccc1` (configuration not stated), the T/C reads like this: (dose: 300.0 mg/kg/injection, schedule: Q04DX003 (sc), vehicle: saline + alcohol) 68 % of control; (dose: 600.0 mg/kg/injection, schedule: Q04DX003 (sc), vehicle: saline + alcohol) 82 % of control; (dose: 1200.0 mg/kg/injection, schedule: Q04DX003 (sc), vehicle: saline + alcohol) 79 % of control; (dose: 2400.0 mg/kg/injection, schedule: Q04DX003 (sc), vehicle: saline + alcohol) 88 % of control.
As for `CC1(C)OCC(CO)(Nc2nc(N3CC3)nc(N3CC3)n2)CO1`, where the note is “dose: 2.5 mg/kg/injection, schedule: Q01DX010 (sc), vehicle: saline”, the T/C was -75 % of control.
For `CCCCCC[C@H]([C@H](C)O)n1cnc2c(N)ncnc21`, the T/C reads like this: (dose: 50.0 mg/kg/injection, schedule: Q01DX010 (sc), vehicle: Klucel (hydroxypropylcellulose) (HPC)) 43 % of control; (dose: 100.0 mg/kg/injection, schedule: Q01DX010 (sc), vehicle: Klucel (hydroxypropylcellulose) (HPC)) 116 % of control; (dose: 200.0 mg/kg/injection, schedule: Q01DX010 (sc), vehicle: Klucel (hydroxypropylcellulose) (HPC)) 94 % of control.

These data come from PubChem BioAssay AID296 (DTP/NCI, 2004).
